# Laboratory results: US9073830B2 (Hyundai Pharm Co., Ltd., priority 2011, dated 2015)
# Columns and labels:
# [1] = molecular target: T1, mouse 11β-HSD1 (Mus musculus, UniProt P50172); assay: Enzyme activity analysis on mouse 11β-HSD1 (HTRF cortisol, liver microsomes); type: biochemical; details: second value of cell
# T1 construct: 100 ug/ml human/mouse liver microsomes; from tissue; host or cells: mouse liver microsomes
# Experimental: (§1) After culturing at 37° C. for 2 hours, 5 μl of cryptate-labeled anti-cortisol antibody and 5 μl of d2-labeled cortisol were added thereto. After further culturing at room temperature for 2 hours, a homogeneous time-resolved fluorescence (HTRF, Cisbio) signal was measured. From each analysis, based on a standard curve calculated using cortisols of several known concentrations, an amount of produced cortisol was tested.
# (§2) While an amount of cortisol, produced without the compound, was used as a control, an inhibition percentage by the test compound, at each concentration, was calculated. By using an inhibition curve calculated by coordinates of inhibition percentage to test compound concentration, an IC50 value of the compound on 11β-HSD1 was obtained.
# [2] = molecular target: T2, human 11β-HSD1 (Homo sapiens, UniProt P28845); assay: Enzyme activity analysis on human 11β-HSD1 (HTRF cortisol, liver microsomes); type: biochemical; details: first value of cell
# T2 construct: 100 ug/ml human/mouse liver microsomes; from tissue; host or cells: human liver microsomes
# T2 sequence (P28845 whole entry): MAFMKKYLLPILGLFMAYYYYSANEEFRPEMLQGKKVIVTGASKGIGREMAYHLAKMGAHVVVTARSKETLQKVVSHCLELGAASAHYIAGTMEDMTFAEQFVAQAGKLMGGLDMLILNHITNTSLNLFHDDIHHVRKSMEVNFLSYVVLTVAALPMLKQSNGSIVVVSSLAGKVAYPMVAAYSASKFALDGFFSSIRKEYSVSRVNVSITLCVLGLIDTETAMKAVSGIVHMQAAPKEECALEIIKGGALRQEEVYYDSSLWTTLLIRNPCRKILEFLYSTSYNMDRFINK
# Experimental: as §1, §2
# T1 sequence (P50172 whole entry): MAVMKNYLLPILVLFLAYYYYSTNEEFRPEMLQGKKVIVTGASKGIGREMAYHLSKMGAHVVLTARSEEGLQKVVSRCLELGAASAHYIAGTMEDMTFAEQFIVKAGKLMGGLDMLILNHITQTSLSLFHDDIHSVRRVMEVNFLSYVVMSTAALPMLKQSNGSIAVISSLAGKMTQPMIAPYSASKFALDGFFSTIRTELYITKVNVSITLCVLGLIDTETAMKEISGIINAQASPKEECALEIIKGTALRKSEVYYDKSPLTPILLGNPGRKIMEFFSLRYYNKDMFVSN
Compound,IC50 [1] [µM],IC50 [2] [µM]
"CC(C)(NS(=O)(=O)c1ccccc1)C(=O)NC1C2CC3CC(C2)CC1C3 (stereo not shown) [compound 1, N-(adamantane-2-yl)-2-methyl-2-(phenylsulfonamido)propanamide]",0.19,0.04
"CC(C)(NS(=O)(=O)c1ccc(F)cc1)C(=O)NC1C2CC3CC(C2)CC1C3 (stereo not shown) [compound 2, N-(adamantane-2-yl)-2-methyl-2-(4-fluorophenylsulfonamido)propanamide]",0.888,0.1
"CC(C)(NS(=O)(=O)c1ccc([N+](=O)[O-])cc1)C(=O)NC1C2CC3CC(C2)CC1C3 (stereo not shown) [compound 3, N-(adamantane-2-yl)-2-methyl-2-(4-nitrophenylsulfonamido)propanamide]",1.7,1.33
"CC(C)(NS(=O)(=O)c1ccc(OC(F)(F)F)cc1)C(=O)NC1C2CC3CC(C2)CC1C3 (stereo not shown) [compound 4, N-(adamantane-2-yl)-2-methyl-2-(4-(trifluoromethoxy)phenylsulfonamido)propanamide]",1.68,1.32
"CC(C)(NS(=O)(=O)c1ccc(Cl)cc1)C(=O)NC1C2CC3CC(C2)CC1C3 (stereo not shown) [compound 5, N-(adamantane-2-yl)-2-methyl-2-(4-chlorophenylsulfonamido)propanamide]",1.05,0.43
"CC(C)(NS(=O)(=O)c1ccccc1Cl)C(=O)NC1C2CC3CC(C2)CC1C3 (stereo not shown) [compound 6, N-(adamantane-2-yl)-2-methyl-2-(2-chlorophenylsulfonamido)propanamide]",0.04,0.02
"Cc1c(Cl)cccc1S(=O)(=O)NC(C)(C)C(=O)NC1C2CC3CC(C2)CC1C3 (stereo not shown) [compound 7, N-(adamantane-2-yl)-2-methyl-2-(3-chloro-2methylphenylsulfonamido)propanamide]",0.33,0.08
"CC(C)(NS(=O)(=O)c1cccc(Cl)c1Cl)C(=O)NC1C2CC3CC(C2)CC1C3 (stereo not shown) [compound 8, N-(adamantane-2-yl)-2-methyl-2-(2,3-dichlorophenylsulfonamido)propanamide]",0.264,0.052
"CC(C)(NS(=O)(=O)c1cc(Cl)ccc1Cl)C(=O)NC1C2CC3CC(C2)CC1C3 (stereo not shown) [compound 9, N-(adamantane-2-yl)-2-methyl-2-(2,5-dichlorophenylsulfonamido)propanamide]",> 2.5,0.091
"CC(C)(NS(=O)(=O)c1cccc(Cl)c1)C(=O)NC1C2CC3CC(C2)CC1C3 (stereo not shown) [compound 10, N-(adamantane-2-yl)-2-methyl-2-(3-chlorophenylsulfonamido)propanamide]",0.735,0.212
"CC(C)(NS(=O)(=O)c1ccc(Cl)c(Cl)c1)C(=O)NC1C2CC3CC(C2)CC1C3 (stereo not shown) [compound 11, N-(adamantane-2-yl)-2-methyl-2-(3,4-dichlorophenylsulfonamido)propanamide]",,0.35
"CC(C)(NS(=O)(=O)c1ccccc1Br)C(=O)NC1C2CC3CC(C2)CC1C3 (stereo not shown) [compound 12, N-(adamantane-2-yl)-2-methyl-2-(2-bromophenylsulfonamido)propanamide]",0.051,0.02
"CC(C)(NS(=O)(=O)c1ccccc1C(F)(F)F)C(=O)NC1C2CC3CC(C2)CC1C3 (stereo not shown) [compound 13, N-(adamantane-2-yl)-2-methyl-2-(2-trifluoromethylphenylsulfonamido)propanamide]",0.267,0.032
"CC(C)(NS(=O)(=O)c1c(Cl)cc(Cl)cc1Cl)C(=O)NC1C2CC3CC(C2)CC1C3 (stereo not shown) [compound 14, N-(adamantane-2-yl)-2-methyl-2-(2,4,6-trichlorophenylsulfonamido)propanamide]",,0.17
"Cc1ccccc1S(=O)(=O)NC(C)(C)C(=O)NC1C2CC3CC(C2)CC1C3 (stereo not shown) [compound 15, N-(adamantane-2-yl)-2-methyl-2-(2-methylphenylsulfonamido)propanamide]",0.313,0.036
"CC(C)(NS(=O)(=O)c1ccccc1F)C(=O)NC1C2CC3CC(C2)CC1C3 (stereo not shown) [compound 16, N-(adamantane-2-yl)-2-methyl-2-(2-fluorophenylsulfonamido)propanamide]",0.255,0.034
"CC(C)(NS(=O)(=O)c1cccc2cccnc12)C(=O)NC1C2CC3CC(C2)CC1C3 (stereo not shown) [compound 17, N-(adamantane-2-yl)-2-methyl-2-(quinoline-8-sulfonamido)propanamide]",0.008,0.008
"CC(C)(NS(=O)(=O)c1ccc(C(C)(C)C)cc1)C(=O)NC1C2CC3CC(C2)CC1C3 (stereo not shown) [compound 18, N-(adamantane-2-yl)-2-methyl-2-(4-(t-butyl)phenylsulfonamido)propanamide]",,1.14

Compound,IC50 [1] [µM],IC50 [2] [µM]
"CC(C)(NS(=O)(=O)c1cccc(C(F)(F)F)c1)C(=O)NC1C2CC3CC(C2)CC1C3 (stereo not shown) [compound 19, N-(adamantane-2-yl)-2-methyl-2-(3-trifluoromethylphenylsulfonamido)propanamide]",,0.478
"CC(C)(NS(=O)(=O)c1cccc2ccccc12)C(=O)NC1C2CC3CC(C2)CC1C3 (stereo not shown) [compound 20, N-(adamantane-2-yl)-2-methyl-2-(naphthalene-1-sulfonamido)propanamide]",,0.304
"CC(C)(NS(=O)(=O)c1ccc2ccccc2c1)C(=O)NC1C2CC3CC(C2)CC1C3 (stereo not shown) [compound 21, N-(adamantane-2-yl)-2-methyl-2-(naphthalene-2-sulfonamido)propanamide]",,0.466
"CC(C)(NS(=O)(=O)Cc1ccccc1[N+](=O)[O-])C(=O)NC1C2CC3CC(C2)CC1C3 (stereo not shown) [compound 22, N-(adamantane-2-yl)-2-methyl-2-((2-nitrophenyl)methylsulfonamido)propanamide]",1.06,0.033
"COc1ccc(S(=O)(=O)NC(C)(C)C(=O)NC2C3CC4CC(C3)CC2C4)cc1 (stereo not shown) [compound 24, N-(adamantane-2-yl)-2-methyl-2-(4-methoxyphenylsulfonamido)propanamide]",,0.404
"CC(C)(NS(=O)(=O)c1ccccc1OC(F)(F)F)C(=O)NC1C2CC3CC(C2)CC1C3 (stereo not shown) [compound 25, N-(adamantane-2-yl)-2-methyl-2-(2-(trifluoromethoxy)phenylsulfonamido)propanamide]",0.42,0.045
"CC(C)(NS(=O)(=O)c1cc(Cl)cc(Cl)c1)C(=O)NC1C2CC3CC(C2)CC1C3 (stereo not shown) [compound 26, N-(adamantane-2-yl)-2-methyl-2-(3,5-dichlorophenylsulfonamido)propanamide]",> 2.5,1.27
"Cc1ccc(S(=O)(=O)NC(C)(C)C(=O)NC2C3CC4CC(C3)CC2C4)cc1F (stereo not shown) [compound 27, N-(adamantane-2-yl)-2-methyl-2-(4-methyl-3-fluorophenylsulfonamido)propanamide]",1.12,0.555
"Cc1cccc(S(=O)(=O)NC(C)(C)C(=O)NC2C3CC4CC(C3)CC2C4)c1 (stereo not shown) [compound 28, N-(adamantane-2-yl)-2-methyl-2-(3-methylphenylsulfonamido)propanamide]",0.437,0.133
"COc1cccc(S(=O)(=O)NC(C)(C)C(=O)NC2C3CC4CC(C3)CC2C4)c1 (stereo not shown) [compound 29, N-(adamantane-2-yl)-2-methyl-2-(3-methoxyphenylsulfonamido)propanamide]",0.329,0.216
"CC(C)(NS(=O)(=O)c1cccc(F)c1)C(=O)NC1C2CC3CC(C2)CC1C3 (stereo not shown) [compound 30, N-(adamantane-2-yl)-2-methyl-2-(3-fluorophenylsulfonamido)propanamide]",0.462,0.192
"CC(C)(NS(=O)(=O)c1ccc(Cl)cc1F)C(=O)NC1C2CC3CC(C2)CC1C3 (stereo not shown) [compound 31, N-(adamantane-2-yl)-2-methyl-2-(4-chloro-2-fluorophenylsulfonamido)propanamide]",1.06,0.409
"CC(C)(NS(=O)(=O)c1ccc(F)cc1C(F)(F)F)C(=O)NC1C2CC3CC(C2)CC1C3 (stereo not shown) [compound 32, N-(adamantane-2-yl)-2-methyl-2-(4-fluoro-2-trifluoromethylphenylsulfonamido)propanamide]",0.583,0.051
"CC(C)(NS(=O)(=O)Cc1ccc(Cl)cc1)C(=O)NC1C2CC3CC(C2)CC1C3 (stereo not shown) [compound 33, N-(adamantane-2-yl)-2-methyl-2-((4-chlorophenyl)methylsulfonamido)propanamide]",1.67,0.065
"CC(C)(NS(=O)(=O)Cc1ccccc1Cl)C(=O)NC1C2CC3CC(C2)CC1C3 (stereo not shown) [compound 34, N-(adamantane-2-yl)-2-methyl-2-((2-chlorophenyl)methylsulfonamido)propanamide]",0.7,0.048
"CC(C)(NS(=O)(=O)Cc1ccc(Cl)c(Cl)c1)C(=O)NC1C2CC3CC(C2)CC1C3 (stereo not shown) [compound 35, N-(adamantane-2-yl)-2-methyl-2-((3,4-dichlorophenyl)methylsulfonamido)propanamide]",> 2.5,> 2.5
"CC(C)(NS(=O)(=O)Cc1ccc(C(F)(F)F)cc1)C(=O)NC1C2CC3CC(C2)CC1C3 (stereo not shown) [compound 36, N-(adamantane-2-yl)-2-methyl-2-((4-trifluoromethylphenyl)methylsulfonamido)propanamide]",> 2.5,0.04
"CN(C(C)(C)C(=O)NC1C2CC3CC1CC(C(N)=O)(C3)C2)S(=O)(=O)c1ccccc1F (stereo not shown) [compound 195, N-4-(2-(2-fluoro-N-methylphenylsulfonamido)-2-methylpropanamido)adamantane-1-carboxyamide]",0.015,
